Laboratory results as given in paper PMC10970734, “Identification of an Intravenous Injectable NK1 Receptor Antagonist for Use in Traumatic Brain Injury” (International Journal of Molecular Sciences, 2024).

Assays:
[1] = tested on: rodent model of TBI; assay: Cerebral oedema after TBI, wet weight-dry weight method; type: in vivo, Sprague Dawley rats; settings: rat TBI, 10 mg/kg 30 min post-injury, tissues 6 h post-injury
Experimental: The BBB dysfunction that follows acute CNS injuries can contribute to significant complications, such as cerebral oedema and raised intracranial pressure (ICP). The development of cerebral oedema was assessed using the wet weight–dry weight method, with tissues collected 6 h post-injury.
Injury was induced in halothane-anesthetized (ProVet) male Sprague Dawley rats (400 ± 20 g) using acceleration-induced impact TBI [29, 93]. This model involves impacting a 10 mm diameter, 3 mm thick stainless steel disc fixed centrally to the exposed skull between the lambda and bregma with an accelerating impactor. The impactor was a 450 g brass weight dropped from a height of 2 m. Earlier studies have shown that the impact acceleration injury produces diffuse axonal injury, oedema, BBB opening, Mg^2+ decline, and moderate-to-severe neurologic deficits. All animals were fed and watered ad libitum before the induction of injury. During both surgery and the immediate recovery phase, rat rectal temperature was maintained using a thermostatically controlled heating pad. […] Blood pressure was monitored, both before and after injury, using a femoral arterial line. […]
The amount of oedema development was calculated using the wet weight–dry weight method. […] Edema in each brain sample was calculated using the wet–dry method formula:%Water = (Wet Weight − Dry Weight)/Wet Weight × 100

[2] = biological target: Histamine H2 (Homo sapiens, UniProt P25021); assay: Cerep selectivity profiling, receptor antagonism; type: biochemical
Experimental: (§1) The pharmacological specificity of EUC-001 was assessed using the commercially available selectivity profiling services provided by Cerep (Celle l’Evescault, France). Initially, the activity of EUC-001, at a fixed concentration of 10 μM, was evaluated in a range of assays to assess pharmacological selectivity relative to other cell-surface receptors, ion channels and transport proteins. Where any significant binding was detected, further assays were performed to quantify potential non-selective activity. […] In terms of this non-specific activity, the IC50s are approximately 3.6 log units greater than that required for NK1R antagonism.
(§2) The pharmacological specificity of EUC-001 was assessed using the commercially available selectivity profiling services provided by Cerep (Celle l’Evescault, France). For initial screens, the binding of EUC-001 (synthesized by Hoffmann-La Roche, Basel, Switzerland) at a fixed concentration of 10 μM was evaluated in a range of assays to assess pharmacological selectivity relative to other cell-surface receptors, ion channels and transport proteins.
(§3) For agonist activity, results are expressed as a percentage of the control agonist response induced by the selective NK1R agonist [Sar^9, Met(O2)^11]-substance P (100 nM) for a range of concentrations of EUC-001. Antagonist activity is expressed as a percentage change in the response induced by 3 nM [Sar^9, Met(O2)^11]-SP (R&D systems) across a range of concentrations of EUC-001. The EC50 values (concentration producing a half-maximal specific response) and IC50 values (concentration causing a half-maximal inhibition of the control specific agonist response) were determined by non-linear regression analysis of the concentration–response curves generated with mean replicate values using Hill equation curve fitting (Y = D + [(A − D)/(1 + (C/C50)nH)], where Y = specific response, D = minimum specific response, A = maximum specific response, C = compound concentration, and C50 = EC50 or IC50, and nH = slope factor). This analysis was performed using custom software developed at Cerep and validated by comparison with data generated by the commercial software SigmaPlot® 4.0 for Windows® (SPSS Inc., Chicago, IL, USA). For the antagonists, the apparent dissociation constants (KB) were calculated using the modified Cheng Prusoff equation (KB = IC50/(1 + (A/EC50A)), where A = concentration of reference agonist in the assay, and EC50A = EC50 value of the reference agonist).

[3] = biological target: Serotonin 5-HT1B (Homo sapiens, UniProt P28222); assay: Cerep selectivity profiling, receptor antagonism; type: biochemical; settings: Serotonin 5-HT1B antagonism
Experimental: as §1, §2, §3

[4] = biological target: T1, Adenosine A3 (Homo sapiens, UniProt P0DMS8); assay: Cerep selectivity profiling, receptor antagonism; type: biochemical
T1 sequence (P0DMS8 1-318): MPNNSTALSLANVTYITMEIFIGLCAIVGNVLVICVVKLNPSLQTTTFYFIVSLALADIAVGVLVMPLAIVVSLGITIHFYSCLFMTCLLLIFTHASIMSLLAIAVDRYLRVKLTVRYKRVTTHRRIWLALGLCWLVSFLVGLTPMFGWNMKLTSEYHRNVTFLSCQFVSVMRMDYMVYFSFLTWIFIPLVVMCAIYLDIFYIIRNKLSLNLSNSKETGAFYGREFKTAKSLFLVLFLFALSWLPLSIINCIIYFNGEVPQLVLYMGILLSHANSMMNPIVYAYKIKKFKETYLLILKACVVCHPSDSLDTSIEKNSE
Experimental: as §1, §2, §3

[5] = tested on: rodent model of TBI; assay: Cognitive function after TBI, Barnes maze; type: in vivo, Sprague Dawley rats; settings: rat TBI, 10 mg/kg 30 min post-injury, 10 days
Experimental: Cognitive outcome was assessed using the Barnes maze in order to reduce the potential confounding effects that may be associated with tests such as the Morris water maze. In the Barnes maze, animals were placed under a cover in the centre of an elevated 1.2 m diameter board containing 19 holes around the periphery. One hole contained the entrance to a darkened escape tunnel that was not visible from the surface, relying on the animal to use surrounding visual cues to locate the tunnel. The time, in seconds, for the animal to locate and enter the escape tunnel was recorded. Following pre-training, the effect of injury, and post-injury treatment, on the time taken for the animal to locate the tunnel was measured (Figure 7). […]
Injury was induced in halothane-anesthetized (ProVet) male Sprague Dawley rats (400 ± 20 g) using acceleration-induced impact TBI [29, 93]. […] Blood pressure was monitored, both before and after injury, using a femoral arterial line. […]
Motor and cognitive outcomes in animals (n = 6 per group) were assessed using the rotarod and Barnes maze, respectively, as described in detail elsewhere. […] The rotational speed of the device was increased from 0 to 30 r.p.m. and the duration (in seconds) when the animals either completed the task, fell from the rods, or gripped the rods and spun for two consecutive revolutions rather than walking actively was recorded as the rotarod score. […]

Sequence of Histamine H2 (P25021 whole entry): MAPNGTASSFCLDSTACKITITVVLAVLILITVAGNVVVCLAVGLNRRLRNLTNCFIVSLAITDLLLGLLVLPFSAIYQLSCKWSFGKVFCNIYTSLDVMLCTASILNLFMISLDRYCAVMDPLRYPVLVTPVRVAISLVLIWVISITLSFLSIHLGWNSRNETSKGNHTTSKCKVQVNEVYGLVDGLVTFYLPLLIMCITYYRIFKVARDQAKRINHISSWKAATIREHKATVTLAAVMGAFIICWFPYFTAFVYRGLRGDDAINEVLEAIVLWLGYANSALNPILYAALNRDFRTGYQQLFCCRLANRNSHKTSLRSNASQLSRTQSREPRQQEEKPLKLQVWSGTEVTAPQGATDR
Sequence of Serotonin 5-HT1B (P28222 whole entry): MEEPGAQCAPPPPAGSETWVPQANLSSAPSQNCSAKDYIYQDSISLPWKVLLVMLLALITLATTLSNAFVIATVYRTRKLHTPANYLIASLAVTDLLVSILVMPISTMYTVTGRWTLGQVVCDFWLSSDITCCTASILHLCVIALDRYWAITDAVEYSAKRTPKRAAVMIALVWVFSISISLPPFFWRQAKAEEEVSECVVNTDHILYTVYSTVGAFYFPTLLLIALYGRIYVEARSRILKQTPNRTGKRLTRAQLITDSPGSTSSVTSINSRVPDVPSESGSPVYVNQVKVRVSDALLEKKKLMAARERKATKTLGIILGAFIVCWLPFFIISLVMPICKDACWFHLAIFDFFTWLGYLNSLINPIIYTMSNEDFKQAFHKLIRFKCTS

Cc1ccccc1-c1cc(N2CCN(C)CC2)ncc1C(=O)N(C)Cc1cc(C(F)(F)F)cc(C(F)(F)F)c1 [EUC-001, N-(3,5-Bis-trifluoromethyl-benzyl)-N-methyl-6-(4-methyl-piperazine-1-yl)-4-o-tolyl-nicotinamide]
Brain tissue water content (cerebral oedema) [1]: not significantly different from sham
IC50 [2]: 16 µM
IC50 [3]: 6.1 µM
IC50 (M) [4]: Not calculable
Cognitive function, Barnes maze time to locate escape tunnel [5]: minimal impact on the performance time
